Test results from ChEMBL document CHEMBL3994630, “Antiparasitic lethality of sulfonamidebenzamides in kinetoplastids” (Bioorg Med Chem Lett, 2017).
One block for each molecule: values may come before it. Calls of active or inactive are those of the source. No cut-off for these calls is given here.

Columns and labels:
[1] = test system: IMR-90; experiment: Cytotoxicity against human IMR90 cells after 44 to 46 hrs by CellTiter-Blue assay; assay type: cell-based
[2] = test system: Leishmania amazonensis; experiment: Anti-parasitic activity against Leishmania amazonensis promastigotes after 44 hrs by CellTiter-Blue assay; assay type: functional
[3] = test system: Trypanosoma brucei; experiment: Antitrypanosomal activity against Trypanosoma brucei 90-13 bloodstream forms after 72 hrs by CellTiter-Blue assay; assay type: functional; conditions: 90-13, 72 h
[4] = Selectivity index, ratio of EC50 for cytotoxicity against human IMR90 cells to EC50 for antitrypanosomal activity against Trypanosoma brucei 90-13 bloodstream forms; assay type: toxicity, cell-based; conditions: read-out: Ratio EC50
[5] = Selectivity index, ratio of EC50 for cytotoxicity against human IMR90 cells to EC50 for anti-parasitic activity against Leishmania amazonensis promastigotes; assay type: toxicity, cell-based; conditions: read-out: Ratio EC50
[6] = test system: Trypanosoma brucei; experiment: Induction of apoptosis in Trypanosoma brucei 90-13 bloodstream forms after 6 to 24 hrs by Annexin-V-FITC/propidium iodide staining based flow cytometry; assay type: functional
[7] = test system: Trypanosoma brucei; experiment: Induction of apoptosis in Trypanosoma brucei 29-13 procyclic forms after 6 to 24 hrs by Annexin-V-FITC/propidium iodide staining based flow cytometry (reference value: 658 RFU); assay type: functional
[8] = test system: Trypanosoma brucei; experiment: Induction of apoptosis in Trypanosoma brucei 90-13 bloodstream forms assessed as dead cells at EC50 after 6 to 24 hrs by Annexin-V-FITC/propidium iodide staining based flow cytometry (reference value: 49.7%); assay type: functional
[9] = test system: Trypanosoma brucei; experiment: Induction of apoptosis in Trypanosoma brucei 90-13 bloodstream forms at EC50 after 6 hrs by Annexin-V-FITC/propidium iodide staining based flow cytometry (reference value: 47.3%); assay type: functional

SMILES: O=C(Nc1ccc(S(=O)(=O)C2CCCCC2)cc1)c1ccc([N+](=O)[O-])o1
EC50 [1]: > 25 µM
EC50 [2]: 1.6 µM
EC50 [3]: 0.49 µM
selectivity ratio [4]: > 51
selectivity ratio [5]: > 16

SMILES: CC1(C)CCN(S(=O)(=O)c2cccc(NC(=O)c3ccco3)c2)CC1
EC50 [1]: > 25 µM
EC50 [2]: 1.2 µM
EC50 [3]: 5.11 µM
selectivity ratio [4]: > 5
selectivity ratio [5]: > 21

SMILES: CC1CS(=O)(=O)CCN1/N=C/c1ccc([N+](=O)[O-])o1 (configuration not stated) [NIFURTIMOX]
EC50 [1]: > 25 µM
EC50 [2]: 0.8 µM
EC50 [3]: 7.5 µM

SMILES: O=C(Nc1ccc(S(=O)(=O)C2=CCOC=C2)cc1)c1ccc([N+](=O)[O-])o1
EC50 [1]: > 25 µM
EC50 [2]: 0.3 µM
EC50 [3]: 0.53 µM
selectivity ratio [4]: > 47
selectivity ratio [5]: > 83

SMILES: O=C(Nc1ccc(S(=O)(=O)N2CCCCC2)cc1)c1ccc([N+](=O)[O-])o1
EC50 [1]: > 25 µM
EC50 [2]: 13.7 µM
EC50 [3]: 0.22 µM
selectivity ratio [4]: > 114
selectivity ratio [5]: > 2

SMILES: CC1(C)CCN(S(=O)(=O)c2ccc(NC(=O)c3ccc([N+](=O)[O-])o3)cc2)CC1
EC50 [1]: > 25 µM
EC50 [2]: 0.28 µM
EC50 [3]: 0.09 µM
selectivity ratio [4]: > 278
selectivity ratio [5]: > 89

SMILES: O=C(Nc1ccc(S(=O)(=O)c2ccccc2)cc1)c1ccc([N+](=O)[O-])o1
EC50 [1]: > 25 µM
EC50 [2]: 4.3 µM
EC50 [3]: 0.11 µM
selectivity ratio [4]: > 227
selectivity ratio [5]: > 6

SMILES: CC1CCN(S(=O)(=O)c2ccc(NC(=O)c3ccc([N+](=O)[O-])o3)cc2)CC1
EC50 [1]: > 25 µM
EC50 [2]: 7.7 µM
EC50 [3]: 0.12 µM
selectivity ratio [4]: > 208
selectivity ratio [5]: > 3

SMILES: Cc1ccc(C(=O)Nc2ccc(S(=O)(=O)N3CCOCC3)cc2)o1
EC50 [1]: > 25 µM
EC50 [2]: > 25 µM
EC50 [3]: > 10 µM

SMILES: CC1(C)CCN(S(=O)(=O)c2ccc(NC(=O)c3ccc(C(F)(F)F)o3)cc2)CC1
EC50 [1]: > 25 µM
EC50 [2]: 10.7 µM
EC50 [3]: 7.55 µM
selectivity ratio [4]: > 3
selectivity ratio [5]: > 2

SMILES: O=C(Nc1ccc(S(=O)(=O)N2CCOCC2)cc1)c1ccc([N+](=O)[O-])s1
EC50 [1]: > 25 µM
EC50 [2]: 1.3 µM
EC50 [3]: 0.06 µM
selectivity ratio [4]: > 417
selectivity ratio [5]: > 19

SMILES: CC(C)(C)C1CCN(S(=O)(=O)c2ccc(NC(=O)c3ccc([N+](=O)[O-])s3)cc2)CC1
EC50 [1]: > 25 µM
EC50 [2]: 0.1 µM
EC50 [3]: 0.03 µM
selectivity ratio [4]: > 833
selectivity ratio [5]: > 250

SMILES: O=C(Nc1ccc(S(=O)(=O)N2CCC(F)CC2)cc1)c1ccc([N+](=O)[O-])o1
EC50 [1]: > 25 µM
EC50 [2]: 7.4 µM
EC50 [3]: 0.42 µM
selectivity ratio [4]: > 60
selectivity ratio [5]: > 3

SMILES: CC(C)(C)C1CCN(S(=O)(=O)c2ccc(NC(=O)c3ccc([N+](=O)[O-])o3)cc2)CC1
EC50 [1]: > 25 µM
EC50 [2]: 1.4 µM
Activity [8]: 48.2%
EC50 [3]: 0.03 µM
selectivity ratio [4]: > 833
Activity [9]: 82%
selectivity ratio [5]: > 18

SMILES: O=C(Nc1ccc(S(=O)(=O)N2CCOCC2)cc1)c1ccc([N+](=O)[O-])cc1
EC50 [1]: > 25 µM
EC50 [2]: > 25 µM
EC50 [3]: > 10 µM

SMILES: CC1(C)CCN(S(=O)(=O)c2cccc(NC(=O)c3ccc([N+](=O)[O-])s3)c2)CC1
EC50 [1]: > 25 µM
EC50 [2]: 1.3 µM
EC50 [3]: 0.045 µM
selectivity ratio [4]: > 556
selectivity ratio [5]: > 19

SMILES: CC1(C)CCN(S(=O)(=O)c2cccc(NC(=O)c3ccc([N+](=O)[O-])o3)c2)CC1
EC50 [1]: > 25 µM
EC50 [2]: 0.1 µM
EC50 [3]: 0.32 µM
selectivity ratio [4]: > 78
selectivity ratio [5]: > 250

SMILES: O=C(Nc1ccc(S(=O)(=O)N2CCOCC2)cc1)c1cccs1
EC50 [1]: > 25 µM
EC50 [2]: > 25 µM
EC50 [3]: > 10 µM

More lines, main results first:

EC50 [3]: 0.01 µM
SMILES: CC1(C)CCN(S(=O)(=O)c2ccc(NC(=O)c3ccc([N+](=O)[O-])s3)cc2)CC1
EC50 [1]: > 25 µM
EC50 [2]: 0.1 µM
selectivity ratio [4]: > 2500
selectivity ratio [5]: > 250

EC50 [3]: 1.47 µM
SMILES: O=C(Nc1cccc(S(=O)(=O)N2CCOCC2)c1)c1ccc([N+](=O)[O-])o1
EC50 [1]: > 25 µM
EC50 [2]: 0.9 µM
selectivity ratio [4]: > 17
selectivity ratio [5]: > 28

EC50 [3]: 0.08 µM
SMILES: O=C(Nc1ccc(S(=O)(=O)N2CCC(Cl)CC2)cc1)c1ccc([N+](=O)[O-])o1
EC50 [1]: > 25 µM
EC50 [2]: 7.9 µM
selectivity ratio [4]: > 313
selectivity ratio [5]: > 3

EC50 [3]: > 10 µM
SMILES: O=C(Nc1ccc(S(=O)(=O)N2CCOCC2)cc1)c1ccco1
EC50 [1]: > 25 µM
EC50 [2]: > 25 µM

EC50 [3]: 0.03 µM
SMILES: O=C(Nc1ccc(S(=O)(=O)N2CCC3(CCCCC3)CC2)cc1)c1ccc([N+](=O)[O-])o1
EC50 [1]: > 25 µM
EC50 [2]: 1.5 µM
selectivity ratio [4]: > 833
selectivity ratio [5]: > 17

EC50 [3]: 0.31 µM
SMILES: O=C(Nc1ccc(S(=O)(=O)N2CCC(O)CC2)cc1)c1ccc([N+](=O)[O-])o1
EC50 [1]: > 25 µM
EC50 [2]: 4.4 µM
Activity [6]: Active
Activity [7]: 849 RFU
selectivity ratio [4]: > 81
selectivity ratio [5]: > 6

EC50 [3]: 6.6 µM
SMILES: CC1(C)CCN(S(=O)(=O)c2ccc(NC(=O)c3cccc([N+](=O)[O-])c3)cc2)CC1
EC50 [1]: > 25 µM
EC50 [2]: 13.3 µM
selectivity ratio [4]: > 4
selectivity ratio [5]: > 2

EC50 [3]: 0.02 µM
SMILES: O=C(Nc1ccc(S(=O)(=O)N2CCC3(CCCCC3)CC2)cc1)c1ccc([N+](=O)[O-])s1
EC50 [1]: > 25 µM
EC50 [2]: 0.1 µM
selectivity ratio [4]: > 1250
selectivity ratio [5]: > 250

EC50 [3]: 10.4 µM
SMILES: CC1(C)CCN(S(=O)(=O)c2cccc(NC(=O)c3cccc([N+](=O)[O-])c3)c2)CC1
EC50 [1]: > 25 µM
EC50 [2]: 3 µM
selectivity ratio [4]: > 2
selectivity ratio [5]: > 8

EC50 [3]: > 10 µM
SMILES: O=C(Nc1ccc(S(=O)(=O)N2CCOCC2)cc1)c1ccccc1
EC50 [1]: > 25 µM
EC50 [2]: > 25 µM

EC50 [3]: 0.46 µM
SMILES: O=C(Nc1ccc(S(=O)(=O)N2CCOCC2)cc1)c1ccc([N+](=O)[O-])o1
EC50 [1]: > 25 µM
EC50 [2]: 3 µM
selectivity ratio [4]: > 54
selectivity ratio [5]: > 8

EC50 [3]: 0.73 µM
SMILES: N=C1CCN(S(=O)(=O)c2ccc(NC(=O)c3ccc([N+](=O)[O-])o3)cc2)CC1
EC50 [1]: > 25 µM
EC50 [2]: 10.5 µM
selectivity ratio [4]: > 34
selectivity ratio [5]: > 2
